Test results taken from ChEMBL document CHEMBL6096723, “Discovery of novel capsaicin analogs as TRPV1 inhibitors for the treatment of idiopathic pulmonary fibrosis” (Eur J Med Chem, 2025).
Active and inactive are the calls of the source. The calls are words filed in the database; no cut-off is given here.

Experiments:
Mus musculus [1] = test: Anti-fibrotic activity against bleomycin-induced pulmonary fibrosis mouse model assessed as increase in survival of mouse at 10 to 20 mg/kg, ip administered every alternative day for 8 to 21 days after modeling; assay type: functional, organism-based; conditions: dose 10-20 mg/kg, time 8-21 day
Mus musculus [2] = test: Anti-pulmonary fibrotic activity against bleomycin induced pulmonary fibrosis mouse model assessed as reduction in alveolar structure at 10 to 20 mg/kg, ip administered every alternative day for 8 to 21 days after modeling; assay type: functional, organism-based; conditions: dose 10-20 mg/kg, time 8-21 day
[3] = biological target: Transient receptor potential cation channel subfamily V member 1 (Homo sapiens) (UniProt Q8NER1); test: Inhibition of TRPV1 (unknown origin) overexpressed in HEK-293T cells assessed as decrease in TGFbeta-induced alpha-SMA expression at 10 uM measured after 48 hrs incubation by Western blotting analysis; assay type: cell-based
Sequence of Transient receptor potential cation channel subfamily V member 1 (Homo sapiens) (Q8NER1 whole entry): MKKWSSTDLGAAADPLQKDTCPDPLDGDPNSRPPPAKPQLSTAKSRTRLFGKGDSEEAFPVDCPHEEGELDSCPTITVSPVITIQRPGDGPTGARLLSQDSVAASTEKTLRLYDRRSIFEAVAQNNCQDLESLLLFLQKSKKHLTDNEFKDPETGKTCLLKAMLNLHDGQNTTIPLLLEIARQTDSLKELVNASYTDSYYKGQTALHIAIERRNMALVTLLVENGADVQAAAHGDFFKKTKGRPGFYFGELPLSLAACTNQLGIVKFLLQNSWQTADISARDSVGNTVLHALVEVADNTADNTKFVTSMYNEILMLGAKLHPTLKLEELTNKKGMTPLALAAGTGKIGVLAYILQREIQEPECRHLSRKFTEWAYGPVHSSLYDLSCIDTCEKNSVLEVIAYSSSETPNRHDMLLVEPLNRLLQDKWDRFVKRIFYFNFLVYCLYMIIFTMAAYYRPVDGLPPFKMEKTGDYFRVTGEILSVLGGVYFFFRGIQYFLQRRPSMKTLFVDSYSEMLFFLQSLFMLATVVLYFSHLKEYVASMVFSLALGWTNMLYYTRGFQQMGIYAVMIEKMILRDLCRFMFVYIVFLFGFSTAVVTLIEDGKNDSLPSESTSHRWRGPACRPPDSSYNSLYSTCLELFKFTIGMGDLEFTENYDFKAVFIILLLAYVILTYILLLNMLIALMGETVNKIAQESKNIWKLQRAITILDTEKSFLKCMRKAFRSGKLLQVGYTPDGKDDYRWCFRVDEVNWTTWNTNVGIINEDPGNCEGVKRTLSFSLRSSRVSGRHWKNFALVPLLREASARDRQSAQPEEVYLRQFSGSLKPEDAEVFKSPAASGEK

[4] = VRT(0 to infinity) in Sprague-Dawley rat at 50 mg/kg, po measured upto 4 hrs by UPLC-MS/MS analysis; assay type: ADME, organism-based; conditions: in vivo
[5] = biological target: Transient receptor potential cation channel subfamily V member 1 (Homo sapiens) (UniProt Q8NER1); test: Inhibition of TRPV1 (unknown origin) overexpressed in HEK-293T cells assessed as reduction in calcium level measured after 24 hrs by Fluo-4 calcium ion detection kit; assay type: cell-based
[6] = Toxicity in bleomycin-induced pulmonary fibrosis mouse model assessed as body weight change at 10 to 20 mg/kg, ip administered every alternative day for 8 to 21 days after modeling; assay type: organism-based; conditions: in vivo, dose lower 10 mg/kg, time lower 8 day, dose upper 20 mg/kg, time upper 21 day
[7] = Acute toxicity in Kunming male mouse assessed as Creatine kinase (CK) level at 180 mg/kg, ip measured after 14 days (reference value: 710.6 U/L); assay type: organism-based; conditions: in vivo, 336 h, time 14 day
[8] = VRT(0 to t) in Sprague-Dawley rat at 50 mg/kg, iv measured upto 4 hrs by UPLC-MS/MS analysis; assay type: ADME, organism-based; conditions: in vivo
[9] = Acute toxicity in Kunming female mouse assessed as Urea level at 180 mg/kg, ip measured after 14 days (reference value: 5.74 mmol/L); assay type: organism-based; conditions: in vivo, 336 h, time 14 day
Mus musculus [10] = test: Anti-pulmonary fibrotic activity against bleomycin induced pulmonary fibrosis mouse model assessed as reduction in pulmonary fibrosis lesions at 10 to 20 mg/kg, ip administered every alternative day for 8 to 21 days after modeling; assay type: functional, organism-based; conditions: dose 10-20 mg/kg, time 8-21 day
[11] = Tmax in Sprague-Dawley rat at 50 mg/kg, ip measured upto 4 hrs by UPLC-MS/MS analysis; assay type: ADME, organism-based; conditions: in vivo
[12] = MRT(0 to t) in Sprague-Dawley rat at 50 mg/kg, iv measured upto 4 hrs by UPLC-MS/MS analysis; assay type: ADME, organism-based; conditions: in vivo
[13] = AUMC(0 to infinity) in Sprague-Dawley rat at 50 mg/kg, ip measured upto 4 hrs by UPLC-MS/MS analysis; assay type: ADME, organism-based; conditions: in vivo
[14] = Acute toxicity in Kunming male mouse assessed as Direct bilirubin (D-Bil) level at 180 mg/kg, ip measured after 14 days (reference value: 6.21 micromol/L); assay type: organism-based; conditions: in vivo, 336 h, time 14 day
[15] = Cmax in Sprague-Dawley rat at 50 mg/kg, po measured upto 4 hrs by UPLC-MS/MS analysis; assay type: ADME, organism-based; conditions: in vivo
Rattus norvegicus [16] = test: Zeta in Sprague-Dawley rat at 50 mg/kg, ip measured upto 4 hrs by UPLC-MS/MS analysis; assay type: ADME, organism-based; conditions: in vivo
NIH3T3 [17] = test: Inhibition of TGFbeta-induced p38 phosphorylation in mouse NIH3T3 cells at 1 to 10 uM by Western blot analysis; assay type: functional, cell-based; conditions: dose 1-10 µM
[18] = VRT(0 to infinity) in Sprague-Dawley rat at 50 mg/kg, iv measured upto 4 hrs by UPLC-MS/MS analysis; assay type: ADME, organism-based; conditions: in vivo
NIH3T3 [19] = test: Antifibrotic activity in mouse NIH3T3 cells assessed as decrease in TGFbeta-induced Collagen type 1 expression measured after 48 hrs incubation by Western blotting analysis; assay type: functional, cell-based; conditions: dose 1-10 µM
[20] = Tmax in Sprague-Dawley rat at 50 mg/kg, po measured upto 4 hrs by UPLC-MS/MS analysis; assay type: ADME, organism-based; conditions: in vivo
[21] = Oral bioavailability in Sprague-Dawley rat at 50 mg/kg measured upto 4 hrs by UPLC-MS/MS analysis; assay type: ADME, organism-based; conditions: in vivo
[22] = AUC(0 to infinity) in Sprague-Dawley rat at 50 mg/kg, iv measured upto 4 hrs by UPLC-MS/MS analysis; assay type: ADME, organism-based; conditions: in vivo
[23] = Half life in Sprague-Dawley rat at 50 mg/kg, iv measured upto 4 hrs by UPLC-MS/MS analysis; assay type: ADME, organism-based; conditions: in vivo
[24] = Clearance in Sprague-Dawley rat at 50 mg/kg, po measured upto 4 hrs by UPLC-MS/MS analysis; assay type: ADME, organism-based; conditions: in vivo
[25] = VRT(0 to infinity) in Sprague-Dawley rat at 50 mg/kg, ip measured upto 4 hrs by UPLC-MS/MS analysis; assay type: ADME, organism-based; conditions: in vivo
[26] = Acute toxicity in Kunming female mouse assessed as Uric acid (UA) level at 180 mg/kg, ip measured after 14 days (reference value: 252.2 micromol/L); assay type: organism-based; conditions: in vivo, 336 h, time 14 day
Mus musculus [27] = test: Anti-pulmonary fibrotic activity against bleomycin induced pulmonary fibrosis mouse model assessed as reduction in inflammatory cell infiltration at 10 to 20 mg/kg, ip administered every alternative day for 8 to 21 days after modeling; assay type: functional, organism-based; conditions: dose 10-20 mg/kg, time 8-21 day
[28] = Acute toxicity in Kunming female mouse assessed as Alanine aminotransferase (ALT) level at 180 mg/kg, ip measured after 14 days (reference value: 33.7 U/L); assay type: organism-based; conditions: in vivo, 336 h, time 14 day
[29] = Half life in Sprague-Dawley rat at 50 mg/kg, po measured upto 4 hrs by UPLC-MS/MS analysis; assay type: ADME, organism-based; conditions: in vivo
[30] = Acute toxicity in Kunming male mouse assessed as Alanine aminotransferase (ALT) level at 180 mg/kg, ip measured after 14 days (reference value: 55.3 U/L); assay type: organism-based; conditions: in vivo, 336 h, time 14 day
[31] = Acute toxicity in Kunming male mouse assessed as Uric acid (UA) level at 180 mg/kg, ip measured after 14 days (reference value: 264.8 micromol/L); assay type: organism-based; conditions: in vivo, 336 h, time 14 day
[32] = MRT(0 to infinity) in Sprague-Dawley rat at 50 mg/kg, po measured upto 4 hrs by UPLC-MS/MS analysis; assay type: ADME, organism-based; conditions: in vivo
Mus musculus [33] = test: Anti-fibrotic activity against bleomycin-induced pulmonary fibrosis mouse model assessed as decrease in hydroxyproline level in lung tissue at 10 to 20 mg/kg, ip administered every alternative day for 8 to 21 days after modeling […]; assay type: functional, organism-based; conditions: dose 10-20 mg/kg, time 8-21 day
Mus musculus [34] = test: Anti-pulmonary fibrotic activity against bleomycin-induced pulmonary fibrosis mouse model assessed as reduction in BLM-induced […] expression in lung tissue at 10 to 20 mg/kg, ip administered every alternative day for 8 to 21 days after modeling; assay type: functional, organism-based; conditions: dose 10-20 mg/kg, time 8-21 day
[35] = Acute toxicity in Kunming male mouse assessed as Total bilirubin (T-Bil) level at 180 mg/kg, ip measured after 14 days (reference value: 12.99 micromol/L); assay type: organism-based; conditions: in vivo, 336 h, time 14 day
Rattus norvegicus [36] = test: Cz in Sprague-Dawley rat at 50 mg/kg, iv measured upto 4 hrs by UPLC-MS/MS analysis; assay type: ADME, organism-based; conditions: in vivo
[37] = AUMC(0 to t) in Sprague-Dawley rat at 50 mg/kg, iv measured upto 4 hrs by UPLC-MS/MS analysis; assay type: ADME, organism-based; conditions: in vivo
[38] = Acute toxicity in Kunming mouse assessed as organ lesions in kidney at 180 mg/kg, ip measured after 14 days by H and E staining based assay; assay type: organism-based; conditions: in vivo, 336 h, time 14 day

In the case of `O=C(/C=C/c1ccc(O)c(O)c1)CCCCc1ccccc1`, the Activity (Mus musculus [1]) was “Active; Comparable To Nintedanib”, the Activity (Mus musculus [2]) was “Active” and the inhibition [3] was “Active”. For the same compound, the VRT [4] was 1.28 hr2, the inhibition [5] was “Active” and the Activity [6] was “Non-toxic”. The Activity [7] was 710.6 U/L, the “VRT(t)” value [8] was 0.569 hr2 and the Activity [9] was 6.51 mmol/L. For the same compound, the Activity (Mus musculus [10]) was “Active”, the Tmax [11] was 10.2 min and the MRT last at 4 h [12] was 44.6 min. It also gave an AUMC [13] of 628.01 ug/L.hr, an Activity [14] of 3.94 µmol/L and a Cmax [15] of 48.9 ng/mL. For the same compound, the Activity (Rattus norvegicus [16]) was 1.98, the inhibition (NIH3T3 [17]) was “Active” and the VRT [18] was 0.779 hr2. For the same compound, the Activity (NIH3T3 [19]) was “Dose-dependent-effect; Compound More Potent Than Nintedanib”, the Tmax [20] was 10.2 min and the bioavailability [21] was 6.5%. It also gave an AUC [22] of 2670.601 ng·h/mL, a half-life [23] of 39.4 min and a CL [24] of 197.26 L/h/kg. The VRT [25] was 0.72 hr2, the Activity [26] was 345.6 µmol/L and the Activity (Mus musculus [27]) was “Active”. It also gave an Activity [28] of 40.1 U/L, a half-life [29] of 51 min and an Activity [30] of 34.5 U/L. For the same compound, the Activity [31] was 325.4 µmol/L, the MRT inf [32] was 81 min and the Activity (Mus musculus [33]) was “Active”. The Activity (Mus musculus [34]) was “Active”, the Activity [35] was 10.43 µmol/L and the Cz (Rattus norvegicus [36]) was 31.67 µg/L. For the same compound, the AUMCt [37] was 1969.254 ug/L.hr and the Activity [38] was “Non-toxic”.
